In paper PMC9403976, “Elucidating the path to Plasmodium prolyl-tRNA synthetase inhibitors that overcome halofuginone resistance” (Nature Communications, 2022):
Several values for one entry are separate records, joined by “and”; a condition that tells them apart may be missing. Equal values may be shown once. Read-outs that look alike come from different tables or passages of the source.

Tests used:
PfcProRS = molecular target: T1, PfcProRS (Plasmodium falciparum, UniProt Q8I5R7); assay type: binding; conditions: for dose-response signal (normalized), SI Fig 8: single replicates
T1 construct: made in house; host or cells: E. coli SoluBL-21

HsProRS = HsProRS (Homo sapiens, UniProt P07814); test: TR-FRET ligand displacement assay with tracer MAT379 (CoraFluor-1-Halo and anti-His6 antibody formats); assay type: binding; set-up: made in house; host or cells: E. coli SoluBL-21; conditions: for TR-FRET dose-response, normalized signal (SI Fig 11): individual replicates
P. falciparum Dd2-2D4 = test: P. falciparum asexual blood stage (ABS) growth assay, SYBR Green, 72 h, wild-type parasites; assay type: cell-based, Plasmodium falciparum; conditions: wildtype (Dd2-2D4); 20 μM

T1 sequence (Q8I5R7 249-746): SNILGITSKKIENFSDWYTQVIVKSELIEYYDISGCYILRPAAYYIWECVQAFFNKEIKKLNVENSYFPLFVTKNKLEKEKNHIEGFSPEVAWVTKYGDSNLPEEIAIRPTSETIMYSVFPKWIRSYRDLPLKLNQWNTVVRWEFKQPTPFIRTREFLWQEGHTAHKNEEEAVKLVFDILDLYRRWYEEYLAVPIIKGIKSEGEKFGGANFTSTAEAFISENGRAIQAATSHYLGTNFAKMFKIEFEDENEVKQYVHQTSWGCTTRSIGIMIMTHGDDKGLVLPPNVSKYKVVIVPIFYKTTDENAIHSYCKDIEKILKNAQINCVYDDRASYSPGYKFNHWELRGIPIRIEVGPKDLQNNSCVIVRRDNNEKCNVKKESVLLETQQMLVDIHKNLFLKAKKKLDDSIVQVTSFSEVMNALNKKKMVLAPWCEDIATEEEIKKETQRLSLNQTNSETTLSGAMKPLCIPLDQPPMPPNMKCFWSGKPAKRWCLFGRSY
Sequence of HsProRS (P07814 996-1512): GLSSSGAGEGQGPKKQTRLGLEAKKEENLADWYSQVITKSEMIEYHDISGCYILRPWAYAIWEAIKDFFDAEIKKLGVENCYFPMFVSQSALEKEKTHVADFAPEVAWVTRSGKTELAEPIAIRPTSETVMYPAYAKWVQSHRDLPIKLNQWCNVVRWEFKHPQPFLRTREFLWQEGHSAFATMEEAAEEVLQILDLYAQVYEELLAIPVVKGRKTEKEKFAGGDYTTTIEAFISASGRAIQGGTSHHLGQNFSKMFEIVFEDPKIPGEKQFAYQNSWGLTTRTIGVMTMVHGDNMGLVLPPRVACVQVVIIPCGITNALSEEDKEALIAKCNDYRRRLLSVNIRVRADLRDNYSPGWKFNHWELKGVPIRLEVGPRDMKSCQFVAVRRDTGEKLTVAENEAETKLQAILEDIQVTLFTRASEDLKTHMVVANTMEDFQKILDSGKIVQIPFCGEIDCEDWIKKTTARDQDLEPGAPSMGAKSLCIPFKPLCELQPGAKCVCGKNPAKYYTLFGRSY

For `O=C(NC1Cc2ccccc2C1)c1nccnc1NC(=O)C1CCOCC1` [compound 18], the “dose-response signal (normalized), SI Fig 8” value (PfcProRS; Log[inhibitor] (M) -5.000) was 3.01E-01 and 4.11E-01 and 4.27E-01, the “dose-response signal (normalized), SI Fig 8” value (PfcProRS; Log[inhibitor] (M) -5.301) was 6.53E-01 and 6.16E-01 and 6.73E-01 and the “dose-response signal (normalized), SI Fig 8” value (PfcProRS; Log[inhibitor] (M) -5.601) was 8.02E-01 and 8.42E-01 and 8.63E-01. The “dose-response signal (normalized), SI Fig 8” value (PfcProRS; Log[inhibitor] (M) -5.904) was 1.01E+00 and 1.00E+00 and 9.12E-01, the “dose-response signal (normalized), SI Fig 8” value (PfcProRS; Log[inhibitor] (M) -6.208) was 1.03E+00 and 1.00E+00 and 9.60E-01 and the “dose-response signal (normalized), SI Fig 8” value (PfcProRS; Log[inhibitor] (M) -6.509) was 1.16E+00 and 9.38E-01 and 1.04E+00. For the same molecule, the “dose-response signal (normalized), SI Fig 8” value (PfcProRS; Log[inhibitor] (M) -6.796) was 9.96E-01 and 9.92E-01 and 1.04E+00, the “dose-response signal (normalized), SI Fig 8” value (PfcProRS; Log[inhibitor] (M) -7.108) was 1.02E+00 and 9.74E-01 and 9.75E-01 and the “dose-response signal (normalized), SI Fig 8” value (PfcProRS; Log[inhibitor] (M) -7.409) was 1.01E+00 (2×) and 1.08E+00. The “dose-response signal (normalized), SI Fig 8” value (PfcProRS; Log[inhibitor] (M) -7.710) was 9.82E-01 and 1.05E+00 and 9.42E-01, the “dose-response signal (normalized), SI Fig 8” value (PfcProRS; Log[inhibitor] (M) -8.000) was 1.03E+00 and 1.10E+00 and 9.98E-01 and the “dose-response signal (normalized), SI Fig 8” value (PfcProRS; Log[inhibitor] (M) -8.301) was 9.51E-01 and 1.13E+00 and 9.71E-01. The “dose-response signal (normalized), SI Fig 8” value (PfcProRS; Log[inhibitor] (M) -8.602) was 1.03E+00 and 9.75E-01 and 1.04E+00, the “dose-response signal (normalized), SI Fig 8” value (PfcProRS; Log[inhibitor] (M) -9.000) was 9.05E-01 and 1.01E+00 and 9.83E-01 and the “dose-response signal (normalized), SI Fig 8” value (PfcProRS; Log[inhibitor] (M) -9.301) was 9.17E-01 and 9.20E-01 and 9.09E-01. The “PfcProRS -- best Kd” value (PfcProRS; SI Fig 16a, values on -log scale) was 5.799, the Kd (HsProRS; HsProRS (KD [nM]) mean, no added proline/ATP (-)) was 7400 nM and the Kd (HsProRS; HsProRS - best Kd, SI Fig 16a, values on -log scale) was 225 nM. For the same molecule, the “normalized TR-FRET ligand displacement signal, dose-response replicates (SI Fig 6)” value (HsProRS; Log[inhibitor] (M) -5.000) was 6.96E-01 and 5.92E-01 and 5.43E-01, the “TR-FRET dose-response, normalized signal (SI Fig 11)” value (HsProRS; Log[inhibitor] (M) -5.000) was 4.20E-01 and 4.17E-01 and 4.61E-01 and the “normalized TR-FRET ligand displacement signal, dose-response replicates (SI Fig 6)” value (HsProRS; Log[inhibitor] (M) -5.301) was 8.37E-01 and 8.70E-01 and 8.44E-01. For the same molecule, the “TR-FRET dose-response, normalized signal (SI Fig 11)” value (HsProRS; Log[inhibitor] (M) -5.301) was 6.08E-01 and 6.33E-01 and 6.32E-01, the “normalized TR-FRET ligand displacement signal, dose-response replicates (SI Fig 6)” value (HsProRS; Log[inhibitor] (M) -5.601) was 9.23E-01 and 9.21E-01 and 9.37E-01 and the “TR-FRET dose-response, normalized signal (SI Fig 11)” value (HsProRS; Log[inhibitor] (M) -5.601) was 7.60E-01 and 7.57E-01 and 7.53E-01. The “normalized TR-FRET ligand displacement signal, dose-response replicates (SI Fig 6)” value (HsProRS; Log[inhibitor] (M) -5.904) was 9.48E-01 and 1.01E+00 and 1.07E+00, the “TR-FRET dose-response, normalized signal (SI Fig 11)” value (HsProRS; Log[inhibitor] (M) -5.904) was 8.33E-01 and 8.64E-01 and 8.38E-01 and the “normalized TR-FRET ligand displacement signal, dose-response replicates (SI Fig 6)” value (HsProRS; Log[inhibitor] (M) -6.208) was 1.06E+00 (2×) and 1.00E+00. For the same molecule, the “TR-FRET dose-response, normalized signal (SI Fig 11)” value (HsProRS; Log[inhibitor] (M) -6.208) was 8.52E-01 and 9.04E-01 and 9.21E-01, the “normalized TR-FRET ligand displacement signal, dose-response replicates (SI Fig 6)” value (HsProRS; Log[inhibitor] (M) -6.509) was 1.01E+00 and 1.02E+00 and 9.62E-01 and the “TR-FRET dose-response, normalized signal (SI Fig 11)” value (HsProRS; Log[inhibitor] (M) -6.509) was 9.56E-01 and 9.24E-01 and 9.57E-01. The “normalized TR-FRET ligand displacement signal, dose-response replicates (SI Fig 6)” value (HsProRS; Log[inhibitor] (M) -6.796) was 9.72E-01 and 9.92E-01 and 1.02E+00, the “TR-FRET dose-response, normalized signal (SI Fig 11)” value (HsProRS; Log[inhibitor] (M) -6.796) was 9.31E-01 (2×) and 9.72E-01 and the “normalized TR-FRET ligand displacement signal, dose-response replicates (SI Fig 6)” value (HsProRS; Log[inhibitor] (M) -7.108) was 9.59E-01 and 8.74E-01 and 9.90E-01. The “TR-FRET dose-response, normalized signal (SI Fig 11)” value (HsProRS; Log[inhibitor] (M) -7.108) was 9.27E-01 and 9.12E-01 and 9.11E-01, the “normalized TR-FRET ligand displacement signal, dose-response replicates (SI Fig 6)” value (HsProRS; Log[inhibitor] (M) -7.409) was 9.78E-01 and 1.02E+00 and 1.05E+00 and the “TR-FRET dose-response, normalized signal (SI Fig 11)” value (HsProRS; Log[inhibitor] (M) -7.409) was 9.66E-01 (2×) and 9.82E-01. The “normalized TR-FRET ligand displacement signal, dose-response replicates (SI Fig 6)” value (HsProRS; Log[inhibitor] (M) -7.710) was 9.30E-01 and 1.05E+00 and 1.11E+00, the “TR-FRET dose-response, normalized signal (SI Fig 11)” value (HsProRS; Log[inhibitor] (M) -7.710) was 9.81E-01 and 9.38E-01 and 9.42E-01 and the “normalized TR-FRET ligand displacement signal, dose-response replicates (SI Fig 6)” value (HsProRS; Log[inhibitor] (M) -8.000) was 9.51E-01 and 9.79E-01 and 1.05E+00. The “TR-FRET dose-response, normalized signal (SI Fig 11)” value (HsProRS; Log[inhibitor] (M) -8.000) was 9.53E-01 and 9.52E-01 and 9.49E-01, the “normalized TR-FRET ligand displacement signal, dose-response replicates (SI Fig 6)” value (HsProRS; Log[inhibitor] (M) -8.301) was 9.09E-01 and 9.22E-01 and 9.59E-01 and the “TR-FRET dose-response, normalized signal (SI Fig 11)” value (HsProRS; Log[inhibitor] (M) -8.301) was 9.20E-01 and 1.00E+00 and 8.97E-01. For the same molecule, the “normalized TR-FRET ligand displacement signal, dose-response replicates (SI Fig 6)” value (HsProRS; Log[inhibitor] (M) -8.602) was 9.55E-01 and 9.72E-01 and 1.02E+00, the “TR-FRET dose-response, normalized signal (SI Fig 11)” value (HsProRS; Log[inhibitor] (M) -8.602) was 9.41E-01 and 9.60E-01 and 9.87E-01 and the “normalized TR-FRET ligand displacement signal, dose-response replicates (SI Fig 6)” value (HsProRS; Log[inhibitor] (M) -9.000) was 9.17E-01 and 1.01E+00 and 9.46E-01. For the same molecule, the “TR-FRET dose-response, normalized signal (SI Fig 11)” value (HsProRS; Log[inhibitor] (M) -9.000) was 9.26E-01 and 9.53E-01 and 9.30E-01, the “normalized TR-FRET ligand displacement signal, dose-response replicates (SI Fig 6)” value (HsProRS; Log[inhibitor] (M) -9.301) was 9.60E-01 and 1.07E+00 and 9.73E-01 and the “TR-FRET dose-response, normalized signal (SI Fig 11)” value (HsProRS; Log[inhibitor] (M) -9.301) was 9.44E-01 and 9.56E-01 and 9.33E-01. For the same molecule, the “% signal at 20 μM, wildtype (Dd2-2D4)” value (P. falciparum Dd2-2D4) was 108%.
